Test results as given in PubChem BioAssay (NCI).
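Method: 48-hour compound exposure of cells in 96-well plates, five concentrations, linear interpolation of endpoints. Here, GI50 denotes the concentration required for 50% inhibition of growth. TGI marks complete inhibition of growth.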

Assays:
Test in all cases: NCI tumour cell line growth inhibition, 48 h
786-0 renal = system: 786-0 renal
A498 renal = system: A498 renal
A549 NSCLC = system: A549 NSCLC
ACHN renal = system: ACHN renal
BT-549 breast = system: BT-549 breast
CAKI-1 renal = system: CAKI-1 renal
CCRF-CEM leukemia = system: CCRF-CEM leukemia
COLO 205 colon = system: COLO 205 colon
DU-145 prostate = system: DU-145 prostate
EKVX NSCLC = system: EKVX NSCLC
HCC-2998 colon = system: HCC-2998 colon
HCT-116 colon = system: HCT-116 colon
HCT-15 colon = system: HCT-15 colon
HL-60(TB) leukemia = system: HL-60(TB) leukemia
HOP-62 NSCLC = system: HOP-62 NSCLC
HOP-92 NSCLC = system: HOP-92 NSCLC
HS 578T breast = system: HS 578T breast
HT29 colon = system: HT29 colon
IGROV1 ovarian = system: IGROV1 ovarian
K-562 leukemia = system: K-562 leukemia
KM12 colon = system: KM12 colon
LOX IMVI melanoma = system: LOX IMVI melanoma
M14 melanoma = system: M14 melanoma
MALME-3M melanoma = system: MALME-3M melanoma
MCF7 breast = system: MCF7 breast
MDA-MB-231 breast = system: MDA-MB-231 breast
MDA-MB-435 = system: MDA-MB-435
MOLT-4 leukemia = system: MOLT-4 leukemia
NCI-H226 lung = system: NCI-H226 lung
NCI-H23 lung = system: NCI-H23 lung
NCI-H460 lung = system: NCI-H460 lung
NCI-H522 lung = system: NCI-H522 lung
NCI/ADR-RES ovarian = system: NCI/ADR-RES ovarian
OVCAR-3 ovarian = system: OVCAR-3 ovarian
OVCAR-4 ovarian = system: OVCAR-4 ovarian
OVCAR-5 ovarian = system: OVCAR-5 ovarian
OVCAR-8 ovarian = system: OVCAR-8 ovarian
PC-3 prostate = system: PC-3 prostate
RPMI-8226 leukemia = system: RPMI-8226 leukemia
RXF 393 renal = system: RXF 393 renal
SF-268 CNS = system: SF-268 CNS
SF-295 CNS = system: SF-295 CNS
SF-539 CNS = system: SF-539 CNS
SK-MEL-2 melanoma = system: SK-MEL-2 melanoma
SK-MEL-28 melanoma = system: SK-MEL-28 melanoma
SK-MEL-5 melanoma = system: SK-MEL-5 melanoma
SK-OV-3 ovarian = system: SK-OV-3 ovarian
SN12C renal = system: SN12C renal
SNB-19 CNS = system: SNB-19 CNS
SNB-75 CNS = system: SNB-75 CNS
SR leukemia = system: SR leukemia
SW-620 colon = system: SW-620 colon
T-47D breast = system: T-47D breast
TK-10 renal = system: TK-10 renal
U251 CNS = system: U251 CNS
UACC-257 melanoma = system: UACC-257 melanoma
UACC-62 melanoma = system: UACC-62 melanoma
UO-31 renal = system: UO-31 renal

## O=C(Nc1ccc(F)cc1F)c1cc(Br)ccc1O
786-0 renal
  GI50: 3130 nM
  TGI: 10200 nM
A498 renal
  GI50: 1070 nM
  TGI: 2750 nM
A549 NSCLC
  GI50: 3260 nM
  TGI: > 100000 nM
ACHN renal
  GI50: 2500 nM
  TGI: 8400 nM
BT-549 breast
  GI50: 1990 nM
  TGI: 5510 nM
CAKI-1 renal
  GI50: 1760 nM
  TGI: 6660 nM
CCRF-CEM leukemia
  GI50: 3710 nM
  TGI: 69300 nM
COLO 205 colon
  GI50: 3750 nM
  TGI: 13800 nM
DU-145 prostate
  GI50: 3850 nM
  TGI: > 100000 nM
EKVX NSCLC
  GI50: 2230 nM
  TGI: 9730 nM
HCC-2998 colon
  GI50: 3750 nM
  TGI: 29900 nM
HCT-116 colon
  GI50: 2470 nM
  TGI: 8450 nM
HCT-15 colon
  GI50: 3040 nM
  TGI: 17300 nM
HL-60(TB) leukemia
  GI50: 2440 nM
  TGI: 7170 nM
HOP-62 NSCLC
  GI50: 2690 nM
  TGI: 12700 nM
HOP-92 NSCLC
  GI50: 593 nM
  TGI: 3900 nM
HS 578T breast
  GI50: 2240 nM
  TGI: 8350 nM
HT29 colon
  GI50: 3530 nM
  TGI: > 100000 nM
IGROV1 ovarian
  GI50: 2180 nM
  TGI: > 100000 nM
K-562 leukemia
  GI50: 2420 nM
  TGI: > 100000 nM
KM12 colon
  GI50: 2990 nM
  TGI: 10100 nM
LOX IMVI melanoma
  GI50: 2910 nM
  TGI: 21200 nM
M14 melanoma
  GI50: 1910 nM
  TGI: 6990 nM
MALME-3M melanoma
  GI50: 1850 nM
  TGI: 5750 nM
MCF7 breast
  GI50: 2560 nM
  TGI: > 100000 nM
MDA-MB-231 breast
  GI50: 2260 nM
  TGI: 7950 nM
MDA-MB-435
  GI50: 2820 nM
  TGI: 11900 nM
MOLT-4 leukemia
  GI50: 2960 nM
  TGI: 12200 nM
NCI-H226 lung
  GI50: 2620 nM
  TGI: 23800 nM
NCI-H23 lung
  GI50: 2430 nM
  TGI: 9210 nM
NCI-H460 lung
  GI50: 2900 nM
  TGI: > 100000 nM
NCI-H522 lung
  GI50: 2830 nM
  TGI: 39900 nM
NCI/ADR-RES ovarian
  GI50: 2860 nM
  TGI: 18200 nM
OVCAR-3 ovarian
  GI50: 2890 nM
  TGI: > 100000 nM
OVCAR-4 ovarian
  GI50: 2100 nM
  TGI: 92000 nM
OVCAR-5 ovarian
  GI50: 3830 nM
  TGI: > 100000 nM
OVCAR-8 ovarian
  GI50: 3010 nM
  TGI: > 100000 nM
PC-3 prostate
  GI50: 2450 nM
  TGI: 8350 nM
RPMI-8226 leukemia
  GI50: 1690 nM
  TGI: 5290 nM
RXF 393 renal
  GI50: 2400 nM
  TGI: 7030 nM
SF-268 CNS
  GI50: 2780 nM
  TGI: 38700 nM
SF-295 CNS
  GI50: 1900 nM
  TGI: 3760 nM
SF-539 CNS
  GI50: 2680 nM
  TGI: 10900 nM
SK-MEL-2 melanoma
  GI50: 2300 nM
  TGI: 6740 nM
SK-MEL-28 melanoma
  GI50: 1430 nM
  TGI: 6240 nM
SK-MEL-5 melanoma
  GI50: 1590 nM
  TGI: 3340 nM
SK-OV-3 ovarian
  GI50: 530 nM
  TGI: 3500 nM
SN12C renal
  GI50: 2260 nM
  TGI: 9260 nM
SNB-19 CNS
  GI50: 2750 nM
  TGI: > 100000 nM
SNB-75 CNS
  GI50: 558 nM
  TGI: 3730 nM
SR leukemia
  GI50: 3050 nM
  TGI: > 100000 nM
SW-620 colon
  GI50: 3060 nM
  TGI: 55900 nM
T-47D breast
  GI50: 1810 nM
  TGI: 7190 nM
TK-10 renal
  GI50: 4830 nM
  TGI: > 100000 nM
U251 CNS
  GI50: 2780 nM
  TGI: > 100000 nM
UACC-257 melanoma
  GI50: 1860 nM
  TGI: 7240 nM
UACC-62 melanoma
  GI50: 1230 nM
  TGI: 3820 nM
UO-31 renal
  GI50: 1430 nM
  TGI: 6010 nM

## C=C[C@H]1CCC/C=C/[C@@H]2C[C@H](O)C[C@H]2[C@H](O)/C=C/C(=O)O1
786-0 renal
  GI50: 18.4 nM
  TGI: 37.7 nM
A498 renal
  GI50: 15 nM
  TGI: 52.8 nM
A549 NSCLC
  GI50: 41.5 nM
  TGI: > 100000 nM
ACHN renal
  GI50: 40.4 nM
  TGI: > 100000 nM
BT-549 breast
  GI50: 50 nM
  TGI: > 100000 nM
CAKI-1 renal
  GI50: 35 nM
  TGI: > 100000 nM
CCRF-CEM leukemia
  GI50: 41.8 nM
  TGI: > 100000 nM
COLO 205 colon
  GI50: 19.4 nM
  TGI: 36.5 nM
DU-145 prostate
  GI50: 77.1 nM
  TGI: > 100000 nM
EKVX NSCLC
  GI50: 39.5 nM
  TGI: > 100000 nM
HCC-2998 colon
  GI50: 31.6 nM
HCT-116 colon
  GI50: 23.8 nM
  TGI: 57.6 nM
HCT-15 colon
  GI50: 32.5 nM
  TGI: > 34700 nM
HL-60(TB) leukemia
  GI50: 34.7 nM
  TGI: 234 nM
HOP-62 NSCLC
  GI50: 48.8 nM
HOP-92 NSCLC
  GI50: 28.9 nM
  TGI: 2990 nM
HS 578T breast
  GI50: < 10 nM
  TGI: > 100000 nM
HT29 colon
  GI50: 24.4 nM
  TGI: 63.2 nM
IGROV1 ovarian
  GI50: 65.5 nM
  TGI: > 100000 nM
K-562 leukemia
  GI50: 47.8 nM
  TGI: > 100000 nM
KM12 colon
  GI50: 22 nM
  TGI: 50.7 nM
LOX IMVI melanoma
  GI50: 22.2 nM
  TGI: 52.8 nM
M14 melanoma
  GI50: 35.3 nM
  TGI: > 100000 nM
MALME-3M melanoma
  GI50: 34 nM
  TGI: 1890 nM
MCF7 breast
  GI50: 21 nM
  TGI: 53.2 nM
MDA-MB-231 breast
  GI50: 20.1 nM
  TGI: 40.3 nM
MDA-MB-435
  GI50: 43 nM
  TGI: > 100000 nM
MOLT-4 leukemia
  GI50: 38.7 nM
  TGI: > 100000 nM
NCI-H226 lung
  GI50: < 12.5 nM
  TGI: 28.9 nM
NCI-H23 lung
  GI50: 39.3 nM
  TGI: 6000 nM
NCI-H460 lung
  GI50: 42.2 nM
  TGI: > 100000 nM
NCI-H522 lung
  GI50: 67.3 nM
  TGI: 356 nM
NCI/ADR-RES ovarian
  GI50: 36.1 nM
  TGI: > 100000 nM
OVCAR-3 ovarian
  GI50: 24.2 nM
  TGI: 57.6 nM
OVCAR-4 ovarian
  GI50: 30.3 nM
  TGI: > 100000 nM
OVCAR-5 ovarian
  GI50: 50.4 nM
  TGI: > 100000 nM
OVCAR-8 ovarian
  GI50: 37.4 nM
  TGI: > 100000 nM
PC-3 prostate
  GI50: 45.8 nM
  TGI: > 100000 nM
RPMI-8226 leukemia
  GI50: 45 nM
  TGI: > 100000 nM
RXF 393 renal
  GI50: < 13.7 nM
  TGI: < 19.3 nM
SF-268 CNS
  GI50: 38 nM
  TGI: > 100000 nM
SF-295 CNS
  GI50: 53.7 nM
  TGI: > 100000 nM
SF-539 CNS
  GI50: 53.1 nM
  TGI: > 100000 nM
SK-MEL-2 melanoma
  GI50: 30.3 nM
  TGI: 94.4 nM
SK-MEL-28 melanoma
  GI50: 21.3 nM
  TGI: 404 nM
SK-MEL-5 melanoma
  GI50: < 12.9 nM
  TGI: 23.8 nM
SK-OV-3 ovarian
  GI50: 40.6 nM
  TGI: > 93500 nM
SN12C renal
  GI50: 37.4 nM
  TGI: > 100000 nM
SNB-19 CNS
  GI50: 54.2 nM
  TGI: > 100000 nM
SNB-75 CNS
  GI50: < 10 nM
  TGI: > 100000 nM
SR leukemia
  GI50: 31.9 nM
SW-620 colon
  GI50: 27.5 nM
  TGI: 94.9 nM
T-47D breast
  GI50: 28.5 nM
  TGI: 97.3 nM
TK-10 renal
  GI50: 39.3 nM
  TGI: 500 nM
U251 CNS
  GI50: 42.8 nM
  TGI: > 100000 nM
UACC-257 melanoma
  GI50: 86.4 nM
  TGI: > 100000 nM
UACC-62 melanoma
  GI50: 34.4 nM
  TGI: > 100000 nM
UO-31 renal
  GI50: 34.1 nM
  TGI: > 100000 nM
